Consider twelve compounds from patent publication US9174996B2, “Protein kinase inhibitors” (Astar Biotech LLC, priority 2012, dated 2015).

Structures are written as SMILES. Where two headings read alike, the source gives them in different places.

Data set [1] relates to Ba/F3 harboring the T315I mutant isoform of BCR-ABL. Put plainly: BaF3/BCR-ABL T315I mouse xenograft model, Experiment 4. The data set is classed as in vivo. The following applies: oral, 14 days, NOD SCID mice. The procedure:
The murine pro-B cell line Ba/F3 harboring the T315I mutant isoform of BCR-ABL was subcutaneously injected into NOD SCID mice (NOD.CB17-Prkdc^scid/J). […] The tumor volumes in two dimensions and the body weights of the mice were measured three times a week (volume=L×W^2×0.5).

In a further data set the test system is U937. Description: MTT cell viability assay, Experiment 3. The data set is classed as cell-based. The following applies: Homo sapiens. From the text:
(§1) This study evaluated the effect of the pure optical isomers on human leukemia cell viability in vitro. Ponatinib was used as the positive control. Two BCR-ABL-positive human leukemia cell lines, K562 and KU812, were used in this study. Besides, Ba/F3 cell transfectants expressing native or T315I BCR-ABL, whose viability is dependent on ectopically expressed BCR-ABL, were also used in this work. Ba/F3 cells expressing BCR-ABL^T315I were used for testing the efficiency of tested compounds on point mutation BCR-ABL^T315I, which cause drug resistance to Imatinib (Gleevec). U937 and JURKAT, two BCR-ABL-negative human leukemia cell lines, were employed to test the selectivity of tested compounds.
(§2) Cells were seeded in 24-well plates, and treated with drugs at corresponding concentrations. Cell viability was measured using a MTT (3-(4,5-dimethylthiazol-2-yl)-2,5-diphenyltetrazolium bromide)-based colorimetric assay with a 96-well plate reader. IC50 values were calculated using the mean of two independent experiments.

The test system of a further data set is JURKAT. Description: MTT cell viability assay, Experiment 3. Particulars: Homo sapiens, read-out: IC50 cell viability, Non-CML leukemia cells JURKAT. The data set is classed as cell-based.
Description: as §1, §2
A general note: Tetrazolium assays rely on reduction of a dye to a coloured formazan, in cell work by metabolically active cells.

The test system of another data set is K562. Description: MTT cell viability assay, Experiment 3. The following applies: Homo sapiens. The data set is classed as cell-based.
Description: as §1, §2

A further data set has as its system KU812. Put plainly: MTT cell viability assay, Experiment 3. Particulars: Homo sapiens. The data set is classed as cell-based.
Description: as §1, §2

For data set [2], the system named is K562 cells. Put plainly: Cell death assay, Experiment 2 (IC50, live cells counted by trypan blue). Particulars: Homo sapiens, 48 h. Type of data set: cell-based. Here is the method: K562 cells (2×10^5 cells/ml) were seeded in 24-well cell culture plate and treated with DMSO or agents. After treatment in the presence of DMSO or agents for 48 h, cells were collected by centrifuging at 500 g for 5 minutes, and then cells were resuspended in appropriate volume of PBS. 10 uL of cell suspension was mixed with 10 uL of trypan blue solution and live cells were counted by TC10 (Bio-Rad, Richmond, Calif.).

Data set [3] has as its system K562 cells. Put plainly: Cell death assay, Experiment 1 (live cells counted by trypan blue). The data set is classed as cell-based. The following applies: Homo sapiens, 100 nM, 48 hours, read-out: % live cells (vs control).
Data set [4] has as its target Ba/F3 cells expressing BCR-ABL T315I (Homo sapiens, UniProt P00519, T315I, cells depend on it). Description: MTT cell viability assay, Experiment 3. The data set is classed as cell-based, murine. The following applies: Mean ± S.E.M, two independent experiments, read-out: IC50 cell viability, Ba/F3 cells T315I BCR-ABL.
Description: as §1, with “Ponatinib was used as the positive control.” left out
as §2

The target in data set [5] is Ba/F3 cells expressing native BCR-ABL (Homo sapiens, UniProt P00519). Description: MTT cell viability assay, Experiment 3. Type of data set: cell-based, murine. The following applies: Mean ± S.E.M, two independent experiments, read-out: IC50 cell viability, Ba/F3 cells Native BCR-ABL.
Description: as §1, with “Ponatinib was used as the positive control.” left out
as §2

The mark [6] stands for this setting: U-937, MTT, Mean ± S.E.M, two independent experiments, read-out: IC50 cell viability, Non-CML leukemia cells U937.
Where [7] appears, read: MTT, Mean ± S.E.M, two independent experiments.
Setting [8] is: K562, MTT, Mean ± S.E.M, two independent experiments, read-out: IC50 cell viability, CML leukemia cells K562.
Setting [9] is: KU812, MTT, Mean ± S.E.M, two independent experiments, read-out: IC50 cell viability, CML leukemia cells KU812.

Regarding `Cc1ccc(C(=O)Nc2ccc(CN3CCN(C)CC3)c(C(F)(F)F)c2)cc1C#Cc1cnc2cccnn12` [Ponatinib, reference compound], the “TGI (Tumor growth inhibition)” value in data set [1] (10 mg/kg/day) was found to be 75%; in data set [1] (20 mg/kg/day), 94%. Moreover, the IC50 in the data set on U937 (U-937, read-out: IC50 cell viability, Non-CML leukemia cells U937) is 246 ± 12.5 nM; in the data set on JURKAT, 295 ± 5 nM; in the data set on K562 (K562, read-out: IC50 cell viability, CML leukemia cells K562), 0.3 ± 0.1 nM; with KU812 (KU812, read-out: IC50 cell viability, CML leukemia cells KU812), 0.1 ± 0.1 nM.
In the case of `Cc1cn(-c2cc(NC(=O)c3ccc(C)c(C#Cc4ccc(NC5CC5)nn4)c3)cc(C(F)(F)F)c2)cn1` [Compound 23, 3-(2-(6-(Cyclopropylamino)pyridazin-3-yl)ethynyl)-4-methyl-N-(3-(4-methyl-1H-imidazol-1-yl)-5-(trifluoromethyl)phenyl)benzamide], the melting point fell in the range of 226 to 228 °C. The half-inhibitory concentration (IC50) in the data set on K562 cells [2] was found to be 16 nM. Further, in the data set on K562 cells [3], the viability at 0.1 µM was 8.6%.
As to `Cc1cn(-c2ccc(NC(=O)c3ccc(C)c(C#Cc4cnc5cccnn45)c3)cc2C(F)(F)F)cn1` [Compound 30, 3-(2-(Imidazo[1,2-b]pyridazin-3-yl)ethynyl)-4-methyl-N-(4-(4-methyl-1H-imidazol-1-yl)-3-(trifluoromethyl)-phenyl)benzamide], the melting point lay within 124 to 126 °C. The compound also displayed an IC50 in the data set on K562 cells [2] of 3.6 nM. In the data set on K562 cells [3], the viability at 0.1 µM is 12.6%.
The compound `Cc1ccc(C(=O)Nc2ccc(CN3CCN(C)CC3)c(C(F)(F)F)c2)cc1C#Cc1ccc(NC2CC2)nn1` [Compound 12, 3-(2-(6-(Cyclopropylamino)pyridazin-3-yl)ethynyl)-4-methyl-N-(4-((4-methylpiperazin-1-yl)methyl)-3-(trifluoromethyl)phenyl)benzamide] displayed a melting point of 68 to 69 °C. Also, the midpoint of inhibition with K562 cells [2], the IC50, lay at 4 nM. In addition, the viability at 0.1 µM in the data set on K562 cells [3] stood at 10.1%.
For the compound `Cc1ccc(C(=O)Nc2ccc3c(c2)C(F)(F)CC3N2CCN(C)CC2)cc1C#Cc1cnc2cccnn12` (racemic) [Compound 36, N-(1,1-difluoro-2,3-dihydro-3-(4-methylpiperazin-1-yl)-1H-indan-6-yl)-3-(2-(imidazo[1,2-b]pyridazin-3-yl)ethynyl)-4-methylbenzamide], the IC50 with K562 cells [2] is 0.87 nM; with U937 (setting [6]), 608 ± 42.2 nM; with JURKAT (setting [7]), 672 ± 77.6 nM; in the data set on K562 (setting [8]), 0.5 ± 0.1 nM; with KU812 (setting [9]) it was 0.2 ± 0.1 nM. The GI50 in data set [4] is 11 ± 0.2 nM; in data set [5] it was 2.7 ± 0.2 nM. The viability at 0.1 µM in the data set on K562 cells [3] was found to be 9.48%.
Regarding `CN1CCN([C@H]2CC(F)(F)c3cc(NC(=O)c4ccc(Cl)c(C#Cc5cnc6cccnn56)c4)ccc32)CC1` (single isomer, unassigned) [Compound 38-(S)], the “TGI (Tumor growth inhibition)” value in data set [1] (5 mg/kg/day) is given as 81%. Moreover, the GI50 in data set [4] is 3.8 ± 0.2 nM; in data set [5], 2.2 ± 0.3 nM. Moreover, the IC50 was above 1000 nM in the data set on U937 (setting [6]), above 1000 nM in the data set on JURKAT (setting [7]), 0.6 ± 0.1 nM in the data set on K562 (setting [8]) and 0.2 ± 0.1 nM in the data set on KU812 (setting [9]).
`Cc1ccc(C(=O)Nc2ccc3c(c2)C(F)(F)CC3N2CCN(C)CC2)cc1C#Cc1cnc(NC2CC2)nc1` (racemic) [Compound 37, 3-(2-(2-(Cyclopropylamino)pyrimidin-5-yl)ethynyl)-N-(1,1-difluoro-2,3-dihydro-3-(4-methylpiperazin-1-yl)-1H-indan-6-yl)-4-methylbenzamide] came in with a melting point of 95 to 97 °C. In the data set with K562 cells [2], this compound displayed an IC50 of 3.4 nM. Besides, the GI50 in data set [4] was 40 ± 9.6 nM. Moreover, in data set [5], the GI50 amounted to 9.3 ± 2.5 nM. The viability at 0.1 µM in the data set with K562 cells [3] was 4.32%. The IC50 in the data set on U937 (setting [6]) was 191 ± 3.3 nM. The IC50 in the data set on JURKAT (setting [7]) came out at 292 ± 8 nM. Also, in the data set with K562 (setting [8]), the concentration for half-maximal inhibition (IC50) came to 1 ± 0.2 nM. In the data set with KU812 (setting [9]), the IC50 turned out to be 0.4 ± 0.1 nM.
Turning to `CN1CCN(C2CC(F)(F)c3cc(NC(=O)c4ccc(Cl)c(C#Cc5cnc6cccnn56)c4)ccc32)CC1` (racemic) [Compound 38, N-(1,1-difluoro-2,3-dihydro-3-(4-methylpiperazin-1-yl)-1H-indan-6-yl)-3-(2-(imidazo[1,2-b]pyridazin-3-yl)ethynyl)-4-chlorobenzamide], the melting point lay in the range of 140 to 142 °C. In [4], the GI50 was found to be 10.1 ± 0.7 nM. For the same compound, the GI50 in data set [5] was 4.9 ± 2.1 nM. Also, the concentration for half-maximal inhibition (IC50) in the data set on U937 (setting [6]) is above 1000 nM. Moreover, the IC50 in the data set on JURKAT (setting [7]) was above 1000 nM. Moreover, the 50% inhibitory concentration (IC50) with K562 (setting [8]) came out at 0.8 ± 0.1 nM. Also, in the data set on KU812 (setting [9]), the IC50 came to 0.4 ± 0.1 nM.
The compound `Cc1ccc(-c2nc3ccc(CN4CCN(C)CC4)cc3[nH]2)cc1C#Cc1cnc2cccnn12` [Compound 3, 3-(2-(2-Methyl-5-(6-((4-methylpiperazin-1-yl)methyl)-1H-benzo[d]imidazol-2-yl)phenyl)ethynyl)imidazo[1,2-b]pyridazine] yielded a melting point of 114 to 115 °C. In the data set with K562 cells [2], this compound registered a half-inhibitory concentration (IC50) of 3 nM. Further, the viability at 0.1 µM with K562 cells [3] is 11.3%.
For `Cc1ccc(C(=O)Nc2ccc(CN3CCN(C)CC3)c(C(F)(F)F)c2)cc1C#Cc1ccc(NC2CCC2)nn1` [Compound 13, 3-(2-(6-(Cyclobutylamino)pyridazin-3-yl)ethynyl)-4-methyl-N-(4-((4-methylpiperazin-1-yl)methyl)-3-(trifluoromethyl)phenyl)benzamide], the melting point was 120 to 121 °C. Further, in the data set on K562 cells [2], half-maximal inhibition (IC50) was put at 11 nM. In addition, the viability at 0.1 µM in the data set with K562 cells [3] was 8.9%.
In turn, `CN1CCN(C2CC(F)(F)c3cc(NC(=O)c4ccc(F)c(C#Cc5cnc6cccnn56)c4)ccc32)CC1` (racemic) [Compound 39, N-(1,1-difluoro-2,3-dihydro-3-(4-methylpiperazin-1-yl)-1H-indan-6-yl)-3-(2-(imidazo[1,2-b]pyridazin-3-yl)ethynyl)-4-fluorobenzamide] returned a melting point of 118 to 121 °C. For the same compound, in [4], the GI50 was 13 ± 0.9 nM. In addition, in [5], the GI50 is 3.6 ± 0.7 nM. The IC50 in the data set on U937 (setting [6]) was determined as 810 ± 39.2 nM. In addition, the IC50 with JURKAT (setting [7]) was above 1000 nM. In addition, the 50% inhibitory concentration (IC50) in the data set with K562 (setting [8]) turned out to be 0.8 ± 0.2 nM. In addition, the concentration for half-maximal inhibition (IC50) with KU812 (setting [9]) stood at 0.5 ± 0.3 nM.
Consider `Cc1ccc(C(=O)Nc2ccc3c(c2)C(F)(F)C[C@@H]3N2CCN(C)CC2)cc1C#Cc1cnc2cccnn12` [Compound 36-(S), (S)-N-(1,1-difluoro-2,3-dihydro-3-(4-methylpiperazin-1-yl)-1H-indan-6-yl)-3-(2-(imidazo[1,2-b]pyridazin-3-yl)ethynyl)-4-methylbenzamide], for which the “TGI (Tumor growth inhibition)” value is 105% in [1] (10 mg/kg/day) and 108% in data set [1] (20 mg/kg/day). Moreover, the GI50 in data set [4] is 4.7 ± 1.3 nM; in data set [5], 2.1 ± 0.2 nM. Also, the IC50 is 868 ± 88.7 nM in the data set with U937 (setting [6]), 851 ± 25.7 nM in the data set with JURKAT (setting [7]), 0.4 ± 0.1 nM with K562 (setting [8]) and 0.1 ± 0.1 nM with KU812 (setting [9]).

As a reminder, the IC50 is the concentration needed to halve the response being measured. In general, melting point refers to the temperature of the solid-liquid transition.
